Tested on: 889142-216-R-J1-PDC complex spheroid viability
Experiment: Anticancer human tumor 889142-216-R-J1-PDC patient-derived bladder carcinoma cell line growth inhibition [POLQ]
Settings: for IC50: curve of first compound; for viability, T/C: stronger effect = lower value
How it was run: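 Complex spheroid viability model combining PDC tumour cells with endothelial (HUVEC) and MSC stromal cells. Novobiocin, ART-558 or RP6685 were tested singly and in combination with standard and investigational anticancer drugs. Each was titrated in half-log steps from near clinical Cmax, or from 10 microM where Cmax was unknown.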

[1] = second compound 0.0316 µM, first compound 0.0316 µM
[2] = second compound 0.0316 µM, first compound 0.1 µM
[3] = second compound 0.0316 µM, first compound 0.316 µM
[4] = second compound 0.0316 µM, first compound 1 µM
[5] = second compound 0.0316 µM, first compound 3.16 µM
[6] = second compound 0.0316 µM, first compound 10 µM
[7] = second compound 0.1 µM, first compound 0.0316 µM
[8] = second compound 0.1 µM, first compound 0.1 µM
[9] = second compound 0.1 µM, first compound 0.316 µM
[10] = second compound 0.1 µM, first compound 1 µM
[11] = second compound 0.1 µM, first compound 3.16 µM
[12] = second compound 0.1 µM, first compound 10 µM
[13] = second compound 0.316 µM, first compound 0.0316 µM
[14] = second compound 0.316 µM, first compound 0.1 µM
[15] = second compound 0.316 µM, first compound 0.316 µM
[16] = second compound 0.316 µM, first compound 1 µM
[17] = second compound 0.316 µM, first compound 3.16 µM
[18] = second compound 0.316 µM, first compound 10 µM
[19] = second compound 1 µM, first compound 0.0316 µM
[20] = second compound 1 µM, first compound 0.1 µM
[21] = second compound 1 µM, first compound 0.316 µM
[22] = second compound 1 µM, first compound 1 µM
[23] = second compound 1 µM, first compound 3.16 µM
[24] = second compound 1 µM, first compound 10 µM
[25] = second compound 3.16 µM, first compound 0.0316 µM
[26] = second compound 3.16 µM, first compound 0.1 µM
[27] = second compound 3.16 µM, first compound 0.316 µM
[28] = second compound 3.16 µM, first compound 1 µM
[29] = second compound 3.16 µM, first compound 3.16 µM
[30] = second compound 3.16 µM, first compound 10 µM
[31] = second compound 10 µM, first compound 0.0316 µM
[32] = second compound 10 µM, first compound 0.1 µM
[33] = second compound 10 µM, first compound 0.316 µM
[34] = second compound 10 µM, first compound 1 µM
[35] = second compound 10 µM, first compound 3.16 µM
[36] = second compound 10 µM, first compound 10 µM
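Note: spheroids exposed to compounds for seven days.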
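Throughout, for viability, T/C: 100% = DMSO vehicle control viability.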

COc1ccc([C@@H](O)c2cc(-c3ncnc4cc(N5CCOCC5)ccc34)c(F)cc2Cl)nn1 + Nc1ccc(C#CCN(C(=O)Cc2ncc(C(F)(F)F)cc2C(F)(F)F)c2ccc(F)cc2)nn1
IC50 (second compound 0.0316 µM): 3.14 µM | IC50 (second compound 0.1 µM): 5.02 µM | IC50 (second compound 0.316 µM): 4.55 µM | IC50 (second compound 1 µM): 5.06 µM | IC50 (second compound 3.16 µM): 5.83 µM | IC50 (second compound 10 µM): 6.74 µM | viability, T/C [1]: 84.6% | viability, T/C [2]: 80.6% | viability, T/C [3]: 81.5% | viability, T/C [4]: 87.8% | viability, T/C [5]: 49.8% | viability, T/C [6]: 35.2% | viability, T/C [7]: 113% | viability, T/C [8]: 77.5% | viability, T/C [9]: 80% | viability, T/C [10]: 73.4% | viability, T/C [11]: 56.8% | viability, T/C [12]: 39.5% | viability, T/C [13]: 87.5% | viability, T/C [14]: 95% | viability, T/C [15]: 72.9% | viability, T/C [16]: 72.8% | viability, T/C [17]: 54% | viability, T/C [18]: 39.6% | viability, T/C [19]: 86.2% | viability, T/C [20]: 72.1% | viability, T/C [21]: 72.4% | viability, T/C [22]: 65.9% | viability, T/C [23]: 62.2% | viability, T/C [24]: 37.8% | viability, T/C [25]: 74.3% | viability, T/C [26]: 65.4% | viability, T/C [27]: 73.8% | viability, T/C [28]: 65.2% | viability, T/C [29]: 63.2% | viability, T/C [30]: 39.3% | viability, T/C [31]: 105% | viability, T/C [32]: 77.9% | viability, T/C [33]: 96.7% | viability, T/C [34]: 60.1% | viability, T/C [35]: 56.6% | viability, T/C [36]: 47.5%

CCc1cc2c(N3CCc4c(cc(Cn5ccnc5)cc4-c4cn(C)nc4C(F)(F)F)C3=O)cc(C)nc2c(OC)n1 + COC1C(OC(N)=O)C(O)C(Oc2ccc3c(O)c(NC(=O)c4ccc(O)c(CC=C(C)C)c4)c(=O)oc3c2C)OC1(C)C
IC50 (second compound 0.0316 µM): > 10 µM | IC50 (second compound 0.1 µM): > 10 µM | IC50 (second compound 0.316 µM): > 10 µM | IC50 (second compound 1 µM): > 10 µM | IC50 (second compound 3.16 µM): > 10 µM | IC50 (second compound 10 µM): > 10 µM | viability, T/C [1]: 112% | viability, T/C [2]: 124% | viability, T/C [3]: 113% | viability, T/C [4]: 97% | viability, T/C [5]: 79.9% | viability, T/C [6]: 68.6% | viability, T/C [7]: 130% | viability, T/C [8]: 115% | viability, T/C [9]: 101% | viability, T/C [10]: 101% | viability, T/C [11]: 85.7% | viability, T/C [12]: 58.2% | viability, T/C [13]: 120% | viability, T/C [14]: 132% | viability, T/C [15]: 107% | viability, T/C [16]: 107% | viability, T/C [17]: 92.9% | viability, T/C [18]: 67.7% | viability, T/C [19]: 126% | viability, T/C [20]: 123% | viability, T/C [21]: 131% | viability, T/C [22]: 105% | viability, T/C [23]: 74.4% | viability, T/C [24]: 61.9% | viability, T/C [25]: 112% | viability, T/C [26]: 106% | viability, T/C [27]: 137% | viability, T/C [28]: 98.4% | viability, T/C [29]: 81.9% | viability, T/C [30]: 55.1% | viability, T/C [31]: 119% | viability, T/C [32]: 102% | viability, T/C [33]: 111% | viability, T/C [34]: 92.2% | viability, T/C [35]: 85.8% | viability, T/C [36]: 62.8%

COc1cccc(OCCCN)c1-c1cc(Nc2cnc(C#N)cn2)n[nH]1 + COC1C(OC(N)=O)C(O)C(Oc2ccc3c(O)c(NC(=O)c4ccc(O)c(CC=C(C)C)c4)c(=O)oc3c2C)OC1(C)C
IC50 (second compound 0.0316 µM): 0.0204 µM | IC50 (second compound 0.1 µM): 0.0198 µM | IC50 (second compound 0.316 µM): 0.0298 µM | IC50 (second compound 1 µM): 0.0175 µM | IC50 (second compound 3.16 µM): 0.0264 µM | IC50 (second compound 10 µM): 0.02 µM | viability, T/C (second compound 0.0316 µM, first compound 0.00316 µM): 90.8% | viability, T/C (second compound 0.0316 µM, first compound 0.01 µM): 55.7% | viability, T/C [1]: 51.2% | viability, T/C [2]: 33.5% | viability, T/C [3]: 34.4% | viability, T/C [4]: 36.2% | viability, T/C (second compound 0.1 µM, first compound 0.00316 µM): 90% | viability, T/C (second compound 0.1 µM, first compound 0.01 µM): 63.5% | viability, T/C [7]: 41.1% | viability, T/C [8]: 31.6% | viability, T/C [9]: 31.5% | viability, T/C [10]: 30.9% | viability, T/C (second compound 0.316 µM, first compound 0.00316 µM): 73.2% | viability, T/C (second compound 0.316 µM, first compound 0.01 µM): 66.6% | viability, T/C [13]: 47.8% | viability, T/C [14]: 38.8% | viability, T/C [15]: 33.8% | viability, T/C [16]: 31.7% | viability, T/C (second compound 1 µM, first compound 0.00316 µM): 87% | viability, T/C (second compound 1 µM, first compound 0.01 µM): 57.5% | viability, T/C [19]: 40.9% | viability, T/C [20]: 36.7% | viability, T/C [21]: 35% | viability, T/C [22]: 30% | viability, T/C (second compound 3.16 µM, first compound 0.00316 µM): 78.3% | viability, T/C (second compound 3.16 µM, first compound 0.01 µM): 61.5% | viability, T/C [25]: 48% | viability, T/C [26]: 38.2% | viability, T/C [27]: 31.4% | viability, T/C [28]: 28.6% | viability, T/C (second compound 10 µM, first compound 0.00316 µM): 81.7% | viability, T/C (second compound 10 µM, first compound 0.01 µM): 58.5% | viability, T/C [31]: 45.6% | viability, T/C [32]: 33.8% | viability, T/C [33]: 34.4% | viability, T/C [34]: 30.7%
